Assay results taken from patent publication US20080004313A1, “Preparation of crystalline polymorphs of rimonabant hydrochloride” (priority 2006, published 2008).

Experiment: Stability study of bulk material (stability-indicating HPLC, storage under controlled temperature and humidity)
Format: physicochemical
Method: The stability of crystalline polymorphic forms or solvates of rimonabant hydrochloride of the present invention may be determined using conventional quantitative analytical methods. For example the stability of crystalline polymorph forms or solvates of rimonabant hydrochloride may be determined by using accelerated stability conditions, wherein the test compounds are stored under controlled conditions of temperature and humidity over known periods of time, e.g., 40° C./75% relative humidity. Quantitative analysis of the test compounds by high performance liquid chromatography method or by X-ray powder diffraction pattern, DSC, IR or TGA, against appropriate reference standards before, during and after the storage period allows the stability of the test compound to be determined.
The stability of polymorph forms or solvate forms (Form A, B, C, D and E) of crystalline rimonabant hydrochloride bulk material and tablets was assessed by storing samples for up to 6 or 12 weeks at 25° C./60% RH or 40° C./75% RH. Changes were monitored using a stability-indicating HPLC method. Results were calculated by normalized peak area (npa). Degradants were identified by comparison of their relative retention times against impurity standards.

**Q.** For `Cc1c(C(=O)NN2CCCCC2)nn(-c2ccc(Cl)cc2Cl)c1-c1ccc(Cl)cc1.Cl` [Form D, N-piperidino-5-(4-chlorophenyl)-1-(2,4-dichlorophenyl)-4-methyl-3-pyrazolecarboxamide hydrochloride], which “stability (time)” value (bulk material, elevated temperatures and humidity) is on record?
**A.** The value was 3 months.

**Q.** And the “physical and chemical stability” value (solid state)?
**A.** The value was “physically and chemically stable”.
